Assay: MTS-PMS cytotoxicity bioassay, MDA-MB 231
Details: human, MDA-MB 231 breast cancer cells
Source text: 5000 cells/well were used for testing.
The drug Doxorubicin was used as system suitability (SST) reference.

SMILES: COc1cccc2c1C(=O)c1c(O)c3c(c(O)c1C2=O)C[C@@](O)(C(=O)CO)C[C@@H]3O[C@H]1C[C@H](N)[C@H](O)[C@H](C)O1 [Doxorubicin]
- cytotoxicity at 100 μm: 45%

From patent publication US20240383950A1, “RECOMBINANT GLYCAN BINDING PROTEINS AND ITS USE” (UNICHEM LABORATORIES LIMITED, priority 2021, published 2024)
